Experiments:
[1] = system: Locomotor Activity in Mice; assay: Inhibition of locomotor activity in mice; type: in vivo; settings: Mus musculus, IP
Excerpt: The above test methods are incorporated herein by reference.

[2] = biological target: T1, [^3 H]Spiroperidol Binding (Homo sapiens, UniProt P14416); assay: Inhibition of [^3 H]spiroperidol binding in a receptor assay
T1 construct: from tissue; host or cells: brain (striatum) membranes
Method: (§1) The compounds of Formula I are valuable dopaminergic agents. […] Thus, the compounds of Formula I were tested for their ability to inhibit locomotor activity in mice according to the assay described by J. R. McLean, et al, Pharmacology, Biochemistry and Behavior, Volume 8, pages 97-99 (1978); for their ability to inhibit [^3 H]spiroperidol binding in a receptor assay described by D. Grigoriadis and P. Seeman, Journal of Neurochemistry, Volume 44, pages 1925-1935 (1985); and for their ability to inhibit dopamine synthesis in rats according to the protocol described by J. R. Walters and R. H. Roth, Naunyn-Schmiedeberg's Archives of Pharmacology, Volume 296, pages 5-14 (1976). The above test methods are incorporated herein by reference. The data in the table show the dopaminergic activity of representative compounds of Formula I.

Brain Dopamine Synthesis = assay: Reversal of brain dopamine synthesis in rats (inhibition of dopamine synthesis); type: in vivo; settings: at 10 mg/kg, IP
Method: as §1

T1 sequence (P14416 whole entry): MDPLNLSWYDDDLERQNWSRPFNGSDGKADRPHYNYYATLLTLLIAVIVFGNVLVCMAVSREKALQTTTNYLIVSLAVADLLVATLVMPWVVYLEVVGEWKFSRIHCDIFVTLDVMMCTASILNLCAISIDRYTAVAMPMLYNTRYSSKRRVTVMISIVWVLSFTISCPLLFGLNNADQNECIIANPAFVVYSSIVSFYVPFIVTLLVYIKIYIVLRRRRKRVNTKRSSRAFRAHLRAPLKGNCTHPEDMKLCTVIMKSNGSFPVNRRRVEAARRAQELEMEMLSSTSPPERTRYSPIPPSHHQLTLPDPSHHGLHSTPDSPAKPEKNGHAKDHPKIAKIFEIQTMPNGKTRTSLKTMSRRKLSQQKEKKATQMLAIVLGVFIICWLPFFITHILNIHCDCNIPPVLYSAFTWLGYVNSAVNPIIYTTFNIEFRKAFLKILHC

SMILES | IC50 [2] | ED50 [1] | % Reversal of Brain Dopamine Synthesis in Rats (Brain Dopamine Synthesis)
c1ccc(N2CCN(CCCc3cccnc3)CC2)nc1 [Example 1, 1-(2-Pyridinyl)-4-[3-(3-pyridinyl)propyl]piperazine] | – | 3.1 mg/kg | –
O=C(CCCN1CCN(c2ccccn2)CC1)c1ccnc2ccccc12 [Example 7, 1-(4-Quinolinyl)-4-[4-(2-pyridinyl)-1-piperazinyl]-1-butanone] | – | 13 mg/kg | –
c1ccc(N2CCN(CCCCc3cccnc3)CC2)nc1 [Example 8, 1-(2-Pyridinyl)-4-[4-(3-pyridinyl)butyl]piperazine] | – | 2.7 mg/kg | 67%
c1cnc(N2CCN(CCCCc3ccncc3)CC2)nc1 [Example 10, 2-[4-[4-(4-Pyridinyl)butyl]-1-piperazinyl]pyrimidine] | 4180 nM | 10.1 mg/kg | 35%
c1cnc(N2CCN(CCCCc3cnc4ccccc4c3)CC2)nc1 [Example 12, 3-[4-[4-(2-Pyrimidinyl)-1-piperazinyl]butyl]quinoline] | – | 1.2 mg/kg | –

Second part, led by results:

IC50 [2] | SMILES | ED50 [1] | % Reversal of Brain Dopamine Synthesis in Rats (Brain Dopamine Synthesis)
2870 nM | O=C(CCCN1CCN(c2ccccn2)CC1)c1cccnc1 [Example 2, 1-(3-Pyridinyl)-4-[4-(2-pyridinyl)-1-piperazinyl]-1-butanone] | 6.3 mg/kg | 43%
2130 nM | O=C(CCCN1CCN(c2ccccn2)CC1)c1ccncc1 [Example 4, 1-(4-Pyridinyl)-4-[4-(2-pyridinyl)-1-piperazinyl]-1-butanone] | 7.6 mg/kg | 35%
486 nM | O=C(CCCN1CCN(c2ccccn2)CC1)c1cnc2ccccc2c1 [Example 6, 1-(3-Quinolinyl)-4-[4-(2-pyridinyl)-1-(piperazinyl)]-1-butanone] | 2.8 mg/kg | –
835 nM | c1ccc(N2CCN(CCCCc3ccncc3)CC2)nc1 [Example 9] | 4 mg/kg | 79%
155 nM | c1ccc(N2CCN(CCCCc3cnc4ccccc4c3)CC2)nc1 [Example 11] | 2.2 mg/kg | 100%
279 nM | c1ccc(N2CCN(CCCCc3ccnc4ccccc34)CC2)nc1 [Example 13, 4-[4-[4-(2-Pyridinyl)-1-piperazinyl]butyl]quinoline] | 3.2 mg/kg | –

— patent US5089497A, “Substituted piperazines as central nervous system agents” (Warner-Lambert Company, priority 1990, dated 1992)
